Experimental data published in ChEMBL document CHEMBL3507680, “University of Dundee, Gates Library screen for HepG2 cell viability”.

Test: Human HepG2 cell viability assay in 384 well format
Assay type: toxicity, cell-based
Parameters: dose 125 nL, time 70.5 hour; cytotoxicity at 70.5 h: concentration not given beside the values
Conditions: HepG2 cells, read-out: Inhibition

SMILES	cytotoxicity at 70.5 h [%]
Cc1nc(CN(C)C2CCN(CCCc3ccccc3)C2)no1 (configuration not stated)	-2.23
CCOCC1CN(c2ccncn2)Cc2cnn(CC)c21 (configuration not stated)	-8.6
COCCc1nnc(NC(=O)CCCc2ccccc2)o1	-6.03
CC(O)CN1CCN(C(=O)Cc2ccccc2Cl)CC1 (configuration not stated)	-5.1
Cc1nn(C)c(C)c1CC(=O)NCC1(C(N)=O)CCOCC1	22.8
CNC(=O)C(CCSC)NC(=O)c1ccc2ccccc2n1 (configuration not stated)	-11
COC(=O)c1ccc(N2CCN(C(=O)c3cnccn3)C(C)C2)cc1 (configuration not stated)	-6.45
Cc1cc(C)n(C2CN(CC(=O)NC3CCS(=O)(=O)C3)C2)n1 (configuration not stated)	-9.43
c1ccc2c(c1)CC(n1ccnc1-c1cc3n(n1)CCCNC3)CO2 (configuration not stated)	-6.83
CC(=O)Nc1ccc(Oc2ccc3c(c2)OCO3)nc1	-12.3
Cn1ccc2ccc(C(=O)Nc3nc[nH]n3)cc21	13.7
Cc1nc(CN2CCOCC3(CCN(c4cccnc4)CC3)C2)cs1	2.23
CNc1nc(CNC(=O)Nc2cccc(F)c2)cs1	-6.65
Cc1nn(C)c2c(=O)n(CC(=O)NCc3ccccc3Cl)ccc12	8.11
Cc1nn(C)c(C)c1CC(=O)N1CCCC(n2ccnc2C)C1 (configuration not stated)	-2.12
Cc1cc(S(=O)(=O)N2CCCN3CCCC3C2)ccc1F (configuration not stated)	-9.81
Cn1ccnc1CNc1ccc(F)c(N2CCCS2(=O)=O)c1	0.314
CC(C)c1cc(NC2CCN(C(=O)N3CCCC3)CC2)ncn1	12.6
COc1cnc(N2C[C@@H](CN3CCOCC3)[C@@H](CO)C2)nc1	-5.35
CCN(CCC(=O)OC)C(=O)c1cccc(Cn2nc(C)cc2C)c1	4.14
CCn1nc(C)c(NC(=O)CN(C)C(C)c2ccon2)c1C (configuration not stated)	3.79
CCOc1ccc2nc(CN3CCOC(CN)C3)ccc2c1 (configuration not stated)	-3.44
O=C(O)CCCNC(=O)N1CCc2c([nH]c3ccc(Cl)cc23)C1	-7.18
CCc1nc(C(=O)N2CC(C(C)C)Nc3ccccc32)c[nH]1 (configuration not stated)	-7.98

SMILES	cytotoxicity at 70.5 h [%]
O=C(Nc1ccccc1)c1nn(C2CCS(=O)(=O)C2)c2c1CCCC2 (configuration not stated)	-11.3
CCN1CCC(CC(=O)NCC(O)c2ccc3ccccc3c2)CC1 (configuration not stated)	9.43
O=C1COC2(COCCN(Cc3cccnc3)C2)CN1c1ccccc1 (configuration not stated)	-0.932
O=c1n(CC2CC2)nc(C2CCNCC2)n1Cc1ccccc1	9.69
CC(C)n1[nH]c(=O)c2c1NC(=O)CC2c1ccc2ncccc2c1 (configuration not stated)	5.19
Cc1nc(C)n(CCCNC(=O)C(C)n2ccnc2C(C)C)n1 (configuration not stated)	-5.67
O=C(NCC1CC1)c1cc(Br)cnc1N1CCCCC1	-1.59
CS(=O)(=O)N1CCOCC2(CN(Cc3ccco3)CCO2)C1 (configuration not stated)	-3.82
CCS(=O)(=O)CCNc1nc(C2CCCC2)nc2c1cnn2C	-6.16
Cc1cc(C)n(CC2CCCCN2Cc2cscn2)n1 (configuration not stated)	-13.4
CCc1noc(CN(C)C(=O)C2COc3ccccc3C2)n1 (configuration not stated)	-0.861
CC(C)(Oc1ccc(F)cc1)C(=O)NCc1ccco1	-2.11
c1ccn(Cc2nnc3n2CCCN(Cc2ccoc2)C3)c1	6.46
Cn1cc2ncn(CCCOc3cccnc3)c(=O)c2n1	22.8
CC(C)c1noc(CN2CCN(C(=O)c3ccccc3F)CC2)n1	-18.6
Cc1noc(-c2ccc(N3CCCC(C(N)=O)C3)nc2)n1 (configuration not stated)	-0.883
O=C(COCc1nc(-c2ccncc2)no1)N1CCCCC1	-6.97
Cc1cc(C)c2nc(CNCCNS(C)(=O)=O)cc(O)c2c1	-2.21
CN(Cc1ccc2c(c1)OCO2)C(=O)C1CC(c2cccc(F)c2)=NO1 (configuration not stated)	-9.63
Cc1ccc(C(C)N(C)Cc2nc3c(cnn3C)c(=O)[nH]2)cc1 (configuration not stated)	-17.2
COc1ccc(-c2cccc3c2OC(CN)C3)cc1F (configuration not stated)	5.9
Cc1cccc(C(C(=O)N(C)Cc2ccco2)N(C)C)c1 (configuration not stated)	2.2
O=C(CN1CCCC(c2ccn[nH]2)C1)Nc1nncs1 (configuration not stated)	1.3
